Test results: patent US8192962B2, “Processes for detecting toxic substances” (Daikin Industries, Ltd., priority 2001, dated 2012)

Tested on: Genes belonging to other category
Assay: DNA chip mRNA expression in yeast, genes belonging to other category (Table 9)
Assay type: cell-based, Saccharomyces cerevisiae S288C
Method: Yeast (Saccharomyces cerevisiae S288C (α SUC2mal mel gap2 CUP1)) were incubated at 25° C. on YPD medium (yeast extract 1%, polypepton 2%, glucose 2%). One of toxic chemical substances was added to the cells at logarithmic growth phase, and the cells were further incubated for two hours. Cells were cultured without any chemical substance in the same condition, and were used as control. Concentrations of the chemical substances were defined to inhibit the growth of the yeast but not lead to death.
After completion of the incubation, the culture was centrifuged to collect the cells. To the cells, sodium acetate buffer (50 mM sodium acetate, 10 mM EDTA, 1% SDS) was added, and the mixture was shaken at 65° C. for five minutes, followed by returning to room temperature, and obtaining the supernatant, of which the procedures were repeated two times. To the supernatant, ½ amount of a solution of phenol/chloroform was added, and the mixture was centrifuged to give a supernatant, which was added with an equal amount of chloroform, and the mixture was centrifuged to give a supernatant. To the supernatant, an equal amount of isopropanol containing 0.3 M sodium acetate was added, and the mixture was allowed to stand at room temperature for 30 minutes, after which the mixture was centrifuged to give a sediment of the whole RNAs. Seventy % ethanol was added to the sediment, and the mixture was again centrifuged to give a sediment, which was then dried and dissolved in water. mRNA was isolated from the whole RNAs as followings. In view of the fact that a poly A chain is attached to the 3′ terminus of mRNA, a polynucleotide having a poly T structure which was immobilized on the surface of latex beads was used to trap the mRNA, and then the mRNA was washed and eluted with spine column (Oligotex-dT30<Super>mRNA Purification Kit, Takara). Reverse transcription of the mRNA was conducted with a reverse transcriptase (Super Script II Reverse Transcriptase; catalogue No. 18064-014, GibcoBRL) using fluorescence-labeled nucleotides to give cDNAs that were introduced with Cy3-dUTP or Cy5-dUTP during the reverse transcription.
The labeled cDNAs were dissolved in TE buffer (10mM Tris-HCl/1 mM EDTA, pH8.0), and the solution was dropped on the DNA chip containing the whole genes of yeast (DNA Chip Research Inc. Japan) so that the cDNAs were hybridized on the DNA chip at 65° C. for over 12 hours. The fluoresces intensity of the DNA chip was read with a scanner, and the ratio relative to the fluorescence intensity resulting from the absence of chemical substance was estimated as the following, which is shown in Tables 1 to 9: […]

Oc1cc(Cl)c(Cl)cc1Cl [(6), 2,4,5-trichlorophenol]
The level of expressed mRNA in the presence of chemical substance/The level of expressed mRNA in the absence of chemical substance (yeast gene YAR010C): 2.3 | The level of expressed mRNA in the presence of chemical substance/The level of expressed mRNA in the absence of chemical substance (yeast gene YBL005W-A): 1.2 | The level of expressed mRNA in the presence of chemical substance/The level of expressed mRNA in the absence of chemical substance (yeast gene YBL041W): 1.7 | The level of expressed mRNA in the presence of chemical substance/The level of expressed mRNA in the absence of chemical substance (yeast gene YBL043W): 26.9 | The level of expressed mRNA in the presence of chemical substance/The level of expressed mRNA in the absence of chemical substance (yeast gene YBL078C): 2.4 | The level of expressed mRNA in the presence of chemical substance/The level of expressed mRNA in the absence of chemical substance (yeast gene YBL101W-A): 1.4 | The level of expressed mRNA in the presence of chemical substance/The level of expressed mRNA in the absence of chemical substance (yeast gene YBR170C): 1.4 | The level of expressed mRNA in the presence of chemical substance/The level of expressed mRNA in the absence of chemical substance (yeast gene YBR173C): 1.3 | The level of expressed mRNA in the presence of chemical substance/The level of expressed mRNA in the absence of chemical substance (yeast gene YBR212W): 1.4 | The level of expressed mRNA in the presence of chemical substance/The level of expressed mRNA in the absence of chemical substance (yeast gene YBR214W): 0.8 | The level of expressed mRNA in the presence of chemical substance/The level of expressed mRNA in the absence of chemical substance (yeast gene YCL020W): 1.0 | The level of expressed mRNA in the presence of chemical substance/The level of expressed mRNA in the absence of chemical substance (yeast gene YCL027W): 1.3 | The level of expressed mRNA in the presence of chemical substance/The level of expressed mRNA in the absence of chemical substance (yeast gene YCR004C): 1.8 | The level of expressed mRNA in the presence of chemical substance/The level of expressed mRNA in the absence of chemical substance (yeast gene YCR069W): 1.4 | The level of expressed mRNA in the presence of chemical substance/The level of expressed mRNA in the absence of chemical substance (yeast gene YCR071C): 2.5 | The level of expressed mRNA in the presence of chemical substance/The level of expressed mRNA in the absence of chemical substance (yeast gene YCR088W): 2.0 | The level of expressed mRNA in the presence of chemical substance/The level of expressed mRNA in the absence of chemical substance (yeast gene YCR106W): 1.4 | The level of expressed mRNA in the presence of chemical substance/The level of expressed mRNA in the absence of chemical substance (yeast gene YDL008W): 2.7 | The level of expressed mRNA in the presence of chemical substance/The level of expressed mRNA in the absence of chemical substance (yeast gene YDL018C): 1.4 | The level of expressed mRNA in the presence of chemical substance/The level of expressed mRNA in the absence of chemical substance (yeast gene YDL143W): 1.0 | The level of expressed mRNA in the presence of chemical substance/The level of expressed mRNA in the absence of chemical substance (yeast gene YDL220C): 1.8 | The level of expressed mRNA in the presence of chemical substance/The level of expressed mRNA in the absence of chemical substance (yeast gene YDL230W): 0.9 | The level of expressed mRNA in the presence of chemical substance/The level of expressed mRNA in the absence of chemical substance (yeast gene YDL238C): 2.1 | The level of expressed mRNA in the presence of chemical substance/The level of expressed mRNA in the absence of chemical substance (yeast gene YDR055W): 3.9 | The level of expressed mRNA in the presence of chemical substance/The level of expressed mRNA in the absence of chemical substance (yeast gene YDR084C): 2.1 | The level of expressed mRNA in the presence of chemical substance/The level of expressed mRNA in the absence of chemical substance (yeast gene YDR085C): 2.1 | The level of expressed mRNA in the presence of chemical substance/The level of expressed mRNA in the absence of chemical substance (yeast gene YDR104C): 1.7 | The level of expressed mRNA in the presence of chemical substance/The level of expressed mRNA in the absence of chemical substance (yeast gene YDR115W): 2.3 | The level of expressed mRNA in the presence of chemical substance/The level of expressed mRNA in the absence of chemical substance (yeast gene YDR212W): 1.4 | The level of expressed mRNA in the presence of chemical substance/The level of expressed mRNA in the absence of chemical substance (yeast gene YDR259C): 0.5 | The level of expressed mRNA in the presence of chemical substance/The level of expressed mRNA in the absence of chemical substance (yeast gene YDR264C): 1.8 | The level of expressed mRNA in the presence of chemical substance/The level of expressed mRNA in the absence of chemical substance (yeast gene YDR315C): 9.4 | The level of expressed mRNA in the presence of chemical substance/The level of expressed mRNA in the absence of chemical substance (yeast gene YDR358W): 2.5 | The level of expressed mRNA in the presence of chemical substance/The level of expressed mRNA in the absence of chemical substance (yeast gene YDR388W): 1.0 | The level of expressed mRNA in the presence of chemical substance/The level of expressed mRNA in the absence of chemical substance (yeast gene YDR403W): 1.1 | The level of expressed mRNA in the presence of chemical substance/The level of expressed mRNA in the absence of chemical substance (yeast gene YDR432W): 0.6 | The level of expressed mRNA in the presence of chemical substance/The level of expressed mRNA in the absence of chemical substance (yeast gene YDR481C): 0.9 | The level of expressed mRNA in the presence of chemical substance/The level of expressed mRNA in the absence of chemical substance (yeast gene YDR510W): 1.0 | The level of expressed mRNA in the presence of chemical substance/The level of expressed mRNA in the absence of chemical substance (yeast gene YEL042W): 0.5 | The level of expressed mRNA in the presence of chemical substance/The level of expressed mRNA in the absence of chemical substance (yeast gene YEL066W): 2.2 | The level of expressed mRNA in the presence of chemical substance/The level of expressed mRNA in the absence of chemical substance (yeast gene YER021W): 1.1
